Test results: patent EP0908457B1, “3-(1,2-benzisothiazol- and isoxazol-5-Y1)-2,4(1H,3H)-pyrimidinedione or thione and 3-(1,2-benzisothiazol- and isoxazol-5-y1)-4(3H)-pyrimidinone or thione herbicidal agents” (BASF AKTIENGESELLSCHAFT, priority 1997, dated 1999)

Key:
[1] = test system: Echinochloa oryzoides (Ard.) Fritsch.; test: Preemergence weed control under flooded paddy conditions, ECHORC (Watergrass (Calif.)); format: in vivo; settings: preemergence, flooded paddy, rated three to four weeks after treatment; also: meaning of each grade not given here
Cyperus iria = test: Preemergence weed control under flooded paddy conditions, CYPIR (Rice Flatsedge); format: in vivo; settings: preemergence, flooded paddy, rated three to four weeks after treatment; also: meaning of each grade not given here
[2] = test system: Cyperus serotinus, Rottb.; test: Preemergence weed control under flooded paddy conditions, CYPSE (Flatsedge); format: in vivo; settings: preemergence, rated three to four weeks after treatment; also: meaning of each grade not given here
[3] = test system: Monochoria vaginalis, Presl.; test: Preemergence weed control under flooded paddy conditions, MOOVA (Monochoria); format: in vivo; settings: preemergence, flooded paddy, rated three to four weeks after treatment; also: meaning of each grade not given here
Sagittaria pygmaea, L. = test: Preemergence weed control under flooded paddy conditions, SAGPY (Arrowhead (Pygmaea)); format: in vivo; settings: preemergence, flooded paddy, rated three to four weeks after treatment; also: meaning of each grade not given here
[4] = test system: Oryza sativa, (L.) Tebonnet; test: Rice tolerance to post-transplant applications under flooded paddy conditions (Example 187), ORYSAT (Rice, Tebonnet); settings: rated three to four weeks after treatment

COC(=O)COc1c(C)cc(C)cc1-c1nsc2ccc(-n3c(=O)cc(C(F)(F)F)n(C)c3=O)cc12 [Example 26, Methyl {{6-{5-[3,6-dihydro-3-methyl-2,6-dioxo-4-(trifluoromethyl)-1(2H)-pyrimidinyl]-1,2-benzisothiazol-3-yl}-2,4-xylyl}oxy}acetate]
herbicidal effect rating, ECHORC ([1]; 0.0313 kg/ha): 7.0
herbicidal effect rating, ECHORC ([1]; 0.0625 kg/ha): 9.0
herbicidal effect rating, ECHORC ([1]; 0.1250 kg/ha): 9.0
herbicidal effect rating, ECHORC ([1]; 0.2500 kg/ha): 9.0
herbicidal effect rating, CYPIR (Cyperus iria; 0.0313 kg/ha): 6.0
herbicidal effect rating, CYPIR (Cyperus iria; 0.0625 kg/ha): 8.0
herbicidal effect rating, CYPIR (Cyperus iria; 0.1250 kg/ha): 9.0
herbicidal effect rating, CYPIR (Cyperus iria; 0.2500 kg/ha): 9.0
herbicidal effect rating, CYPSE ([2]; 0.0313 kg/ha): 0.0
herbicidal effect rating, CYPSE ([2]; 0.0625 kg/ha): 4.0
herbicidal effect rating, CYPSE ([2]; 0.1250 kg/ha): 2.0
herbicidal effect rating, CYPSE ([2]; 0.2500 kg/ha): 9.0
herbicidal effect rating, MOOVA ([3]; 0.0313 kg/ha): 9.0
herbicidal effect rating, MOOVA ([3]; 0.0625 kg/ha): 9.0
herbicidal effect rating, MOOVA ([3]; 0.1250 kg/ha): 9.0
herbicidal effect rating, MOOVA ([3]; 0.2500 kg/ha): 9.0
herbicidal effect rating, SAGPY (Sagittaria pygmaea, L.; 0.0313 kg/ha): 0.0
herbicidal effect rating, SAGPY (Sagittaria pygmaea, L.; 0.0625 kg/ha): 0.0
herbicidal effect rating, SAGPY (Sagittaria pygmaea, L.; 0.1250 kg/ha): 2.0
herbicidal effect rating, SAGPY (Sagittaria pygmaea, L.; 0.2500 kg/ha): 9.0
herbicidal effect rating, ORYSAT (rice tolerance) ([4]; 0.0313 kg/ha): 3.0
herbicidal effect rating, ORYSAT (rice tolerance) ([4]; 0.0625 kg/ha): 4.0
herbicidal effect rating, ORYSAT (rice tolerance) ([4]; 0.1250 kg/ha): 6.0
herbicidal effect rating, ORYSAT (rice tolerance) ([4]; 0.2500 kg/ha): 9.0

COC(=O)C(C)Oc1c(C)cc(C)cc1-c1nsc2ccc(-n3c(=O)cc(C(F)(F)F)n(C)c3=O)cc12 (stereo not drawn) [Example 27, Methyl 2-{{6-{5-[3,6-dihydro-3-methyl-2,6-dioxo-4-(trifluoromethyl)-1(2H)-pyrimidinyl]-1,2-benzisothiazol-3-yl}-2,4-xylyl}oxy}propionate]
herbicidal effect rating, ECHORC ([1]; 0.0313 kg/ha): 6.0
herbicidal effect rating, ECHORC ([1]; 0.0625 kg/ha): 7.0
herbicidal effect rating, ECHORC ([1]; 0.1250 kg/ha): 9.0
herbicidal effect rating, ECHORC ([1]; 0.2500 kg/ha): 9.0
herbicidal effect rating, CYPIR (Cyperus iria; 0.0313 kg/ha): 2.0
herbicidal effect rating, CYPIR (Cyperus iria; 0.0625 kg/ha): 4.0
herbicidal effect rating, CYPIR (Cyperus iria; 0.1250 kg/ha): 6.0
herbicidal effect rating, CYPIR (Cyperus iria; 0.2500 kg/ha): 9.0
herbicidal effect rating, CYPSE ([2]; 0.0313 kg/ha): 0.0
herbicidal effect rating, CYPSE ([2]; 0.0625 kg/ha): 0.0
herbicidal effect rating, CYPSE ([2]; 0.1250 kg/ha): 0.0
herbicidal effect rating, CYPSE ([2]; 0.2500 kg/ha): 2.0
herbicidal effect rating, MOOVA ([3]; 0.0313 kg/ha): 8.0
herbicidal effect rating, MOOVA ([3]; 0.0625 kg/ha): 9.0
herbicidal effect rating, MOOVA ([3]; 0.1250 kg/ha): 9.0
herbicidal effect rating, MOOVA ([3]; 0.2500 kg/ha): 9.0
herbicidal effect rating, SAGPY (Sagittaria pygmaea, L.; 0.0313 kg/ha): 0.0
herbicidal effect rating, SAGPY (Sagittaria pygmaea, L.; 0.0625 kg/ha): 0.0
herbicidal effect rating, SAGPY (Sagittaria pygmaea, L.; 0.1250 kg/ha): 2.0
herbicidal effect rating, SAGPY (Sagittaria pygmaea, L.; 0.2500 kg/ha): 4.0
herbicidal effect rating, ORYSAT (rice tolerance) ([4]; 0.0313 kg/ha): 2.0
herbicidal effect rating, ORYSAT (rice tolerance) ([4]; 0.0625 kg/ha): 3.0
herbicidal effect rating, ORYSAT (rice tolerance) ([4]; 0.1250 kg/ha): 5.0
herbicidal effect rating, ORYSAT (rice tolerance) ([4]; 0.2500 kg/ha): 6.0

CCc1ccc(OC(C)C(=O)OC)c(-c2nsc3ccc(-n4c(=O)cc(C(F)(F)F)n(C)c4=O)cc23)c1 (stereo not drawn) [Example 28, Methyl 2-{2-{5-[3,6-dihydro-3-methyl-2,6-dioxo-4-(trifluoromethyl)-1(2H)-pyrimidinyl]-1,2-benzisothiazol-3-yl}-4-ethylphenoxy}propionate]
herbicidal effect rating, ECHORC ([1]; 0.0313 kg/ha): 8.0
herbicidal effect rating, ECHORC ([1]; 0.0625 kg/ha): 9.0
herbicidal effect rating, ECHORC ([1]; 0.1250 kg/ha): 9.0
herbicidal effect rating, ECHORC ([1]; 0.2500 kg/ha): 9.0
herbicidal effect rating, CYPIR (Cyperus iria; 0.0313 kg/ha): 2.0
herbicidal effect rating, CYPIR (Cyperus iria; 0.0625 kg/ha): 4.0
herbicidal effect rating, CYPIR (Cyperus iria; 0.1250 kg/ha): 6.0
herbicidal effect rating, CYPIR (Cyperus iria; 0.2500 kg/ha): 9.0
herbicidal effect rating, CYPSE ([2]; 0.0313 kg/ha): 0.0
herbicidal effect rating, CYPSE ([2]; 0.0625 kg/ha): 0.0
herbicidal effect rating, CYPSE ([2]; 0.1250 kg/ha): 0.0
herbicidal effect rating, CYPSE ([2]; 0.2500 kg/ha): 4.0
herbicidal effect rating, MOOVA ([3]; 0.0313 kg/ha): 8.0
herbicidal effect rating, MOOVA ([3]; 0.0625 kg/ha): 9.0
herbicidal effect rating, MOOVA ([3]; 0.1250 kg/ha): 9.0
herbicidal effect rating, MOOVA ([3]; 0.2500 kg/ha): 9.0
herbicidal effect rating, SAGPY (Sagittaria pygmaea, L.; 0.0313 kg/ha): 0.0
herbicidal effect rating, SAGPY (Sagittaria pygmaea, L.; 0.0625 kg/ha): 2.0
herbicidal effect rating, SAGPY (Sagittaria pygmaea, L.; 0.1250 kg/ha): 4.0
herbicidal effect rating, SAGPY (Sagittaria pygmaea, L.; 0.2500 kg/ha): 8.0
herbicidal effect rating, ORYSAT (rice tolerance) ([4]; 0.0313 kg/ha): 3.0
herbicidal effect rating, ORYSAT (rice tolerance) ([4]; 0.0625 kg/ha): 4.0
herbicidal effect rating, ORYSAT (rice tolerance) ([4]; 0.1250 kg/ha): 7.0
herbicidal effect rating, ORYSAT (rice tolerance) ([4]; 0.2500 kg/ha): 9.0
